Key:
crabgrass = test: Test A pre-/postemergence greenhouse test; type: in vivo, Digitaria sanguinalis; details: for Crabgrass, Large plant response rating: 0 to 100 scale; for Plant response rating, Crabgrass, Large: 0 to 100 scale where 0 is no effect and 100 is complete control
In short: (§1)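 Visual injury ratings against untreated controls, taken roughly ten days after treatment in greenhouse. Plants were sprayed postemergence at one- to two-leaf stage (2–10 cm tall); at the same time, seeded loam/sand soil received a directed preemergence spray. Formulation: non-phytotoxic solvent mixture with surfactant.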

giant foxtail = test: Test A pre-/postemergence greenhouse test; type: in vivo, Setaria faberi; details: for Foxtail, Giant plant response rating: 0 to 100 scale; for Plant response rating, Foxtail, Giant: 0 to 100 scale where 0 is no effect and 100 is complete control
In short: as §1

morningglory [1] = test: Test A pre-/postemergence greenhouse test; type: in vivo, Ipomoea spp.; details: for Morningglory plant response rating: 0 to 100 scale; for Plant response rating, Morningglory: 0 to 100 scale where 0 is no effect and 100 is complete control
In short: as §1

wheat [2] = test: Test A pre-/postemergence greenhouse test; type: in vivo, Triticum aestivum; details: for Wheat plant response rating: 0 to 100 scale; for Plant response rating, Wheat: 0 to 100 scale where 0 is no effect and 100 is complete control
In short: as §1

corn = test: Test A pre-/postemergence greenhouse test; type: in vivo, Zea mays; details: for Corn plant response rating: 0 to 100 scale; for Plant response rating, Corn: 0 to 100 scale where 0 is no effect and 100 is complete control
In short: as §1

Italian ryegrass = test: Test C pre-/postemergence test; type: in vivo, Lolium multiflorum; details: Preemergence; for Ryegrass, Italian plant response rating: 62 g ai/ha, scale 0 to 100; for Plant response rating, Ryegrass, Italian: 31 g ai/ha, scale 0 to 100 (0 no effect, 100 complete control)
In short: (§2)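 Test chemicals were formulated with surfactant in a non-phytotoxic solvent and sprayed both on freshly planted seeds (preemergence) and on 1- to 4-leaf plants of 2–18 cm (postemergence). Flooded-paddy pots received compound directly into 3 cm of standing water, maintained for the test.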

wheat [3] = test: Test C pre-/postemergence test; type: in vivo, Triticum aestivum; details: Preemergence; for Wheat plant response rating: 62 g ai/ha, scale 0 to 100; for Plant response rating, Wheat: 31 g ai/ha, scale 0 to 100 (0 no effect, 100 complete control)
In short: as §2

catchweed bedstraw = test: Test C pre-/postemergence test; type: in vivo, Galium aparine; details: Preemergence; for Galium plant response rating: 62 g ai/ha, scale 0 to 100; for Plant response rating, Galium: 31 g ai/ha, scale 0 to 100 (0 no effect, 100 complete control); for Plant response rating (0 to 100), Galium: 250 g ai/ha
In short: as §2

bermudagrass = test: Test C pre-/postemergence test; type: in vivo, Cynodon dactylon; details: for Plant response rating, Bermudagrass: 31 g ai/ha; for Plant response rating (0 to 100), Bermudagrass: 250 g ai/ha
In short: as §2

Goosegrass = test: Test C pre-/postemergence test; type: in vivo, Eleusin indica; details: Preemergence; for Goosegrass plant response rating: 62 g ai/ha, scale 0 to 100; for Plant response rating, Goosegrass: 31 g ai/ha, scale 0 to 100 (0 no effect, 100 complete control); for Plant response rating (0 to 100), Goosegrass: 250 g ai/ha
In short: as §2

morningglory [4] = test: Test C pre-/postemergence test; type: in vivo, Ipomoea coccinea; details: Preemergence; for Morningglory plant response rating: 62 g ai/ha, scale 0 to 100; for Plant response rating, Morningglory: 31 g ai/ha, scale 0 to 100 (0 no effect, 100 complete control)
In short: as §2

yellow nutsedge = test: Test C pre-/postemergence test; type: in vivo, Cyperus esculentus; details: Preemergence; for Nutsedge, Yellow plant response rating: 62 g ai/ha, scale 0 to 100; for Plant response rating, Nutsedge, Yellow: 31 g ai/ha, scale 0 to 100 (0 no effect, 100 complete control)
In short: as §2

pigweed = test: Test C pre-/postemergence test; type: in vivo, Amaranthus retroflexus; details: Preemergence; for Pigweed plant response rating: 62 g ai/ha, scale 0 to 100; for Plant response rating, Pigweed: 31 g ai/ha, scale 0 to 100 (0 no effect, 100 complete control)
In short: as §2

soybean = test: Test C pre-/postemergence test; type: in vivo, Glycine max; details: Preemergence; for Soybean plant response rating: 62 g ai/ha, scale 0 to 100
In short: as §2

[5] = test system: common (oilseed) sunflower; test: Test C pre-/postemergence test; type: in vivo, Helianthus annuus; details: Preemergence; for Sunflower plant response rating: 62 g ai/ha, scale 0 to 100; for Plant response rating, Sunflower: 31 g ai/ha, scale 0 to 100 (0 no effect, 100 complete control)
In short: as §2

umbrella sedge = test: Test C flooded paddy test; type: in vivo, Cyperus difformis; details: Flood
In short: (§3)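 Greenhouse pots flooded to 3 cm above soil at time of treatment received compound via the water, which stayed at that level.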

barnyardgrass = test: Test C flooded paddy test; type: in vivo, Echinochloa crus-galli; details: Flood
In short: as §3

[6] = Postemergence, 125 g ai/ha, 0 is no effect, 100 is complete control
[7] = Postemergence, 500 g ai/ha, 0 is no effect, 100 is complete control
[8] = Preemergence, 125 g ai/ha, 0 no effect, 100 complete control
[9] = 62 g ai/ha, Preemergence, scale 0 to 100 (0 no effect, 100 complete control)
[10] = Preemergence, scale 0 to 100 (0 no effect, 100 complete control)
[11] = preemergence, 125 g ai/ha, scale 0 (no effect) to 100 (complete control)
[12] = 31 g ai/ha, scale 0 to 100 (0 no effect, 100 complete control)
[13] = 62 g ai/ha, scale 0 to 100, 0 no effect, 100 complete control, 13 to 15 days
[14] = 125 g ai/ha, scale 0 to 100, 0 no effect, 100 complete control, 13 to 15 days
[15] = 250 g ai/ha, scale 0 to 100, 0 no effect, 100 complete control, 13 to 15 days
[16] = 250 g ai/ha, scale 0 to 100 (0 no effect, 100 complete control)

Cn1nc(C(F)(F)F)c(CS(=O)(=O)c2cc(C(C)(C)C)cc[n+]2[O-])c1OC(F)F [Compound 25]
Crabgrass, Large plant response rating (crabgrass; [6]): 10
Crabgrass, Large plant response rating (crabgrass; [7]): 70
Crabgrass, Large plant response rating (crabgrass; [8]): 90
Plant response rating, Crabgrass, Large (crabgrass; Preemergence, 500 g ai/ha): 100
Foxtail, Giant plant response rating (giant foxtail; [6]): 30
Foxtail, Giant plant response rating (giant foxtail; [7]): 70
Foxtail, Giant plant response rating (giant foxtail; [8]): 100
Plant response rating, Foxtail, Giant (giant foxtail; Preemergence, 500 g ai/ha): 100
Morningglory plant response rating (morningglory [1]; [6]): 10
Morningglory plant response rating (morningglory [1]; [7]): 60
Morningglory plant response rating (morningglory [1]; [8]): 0
Plant response rating, Morningglory (morningglory [1]; Preemergence, 500 g ai/ha): 80
Wheat plant response rating (wheat [2]; [6]): 0
Wheat plant response rating (wheat [2]; [7]): 40
Wheat plant response rating (wheat [2]; [8]): 40
Plant response rating, Wheat (wheat [2]; Preemergence, 500 g ai/ha): 60
Corn plant response rating (corn; [6]): 0
Corn plant response rating (corn; [7]): 20
Corn plant response rating (corn; [8]): 0
Plant response rating, Corn (corn; Preemergence, 500 g ai/ha): 60
Ryegrass, Italian plant response rating (Italian ryegrass): 0
Plant response rating, Ryegrass, Italian (Italian ryegrass): 0
Wheat plant response rating (wheat [3]): 20
Plant response rating, Wheat (wheat [3]): 0
Galium plant response rating (catchweed bedstraw): 98
Plant response rating, Galium (catchweed bedstraw): 70
Plant response rating (0 to 100), Galium (catchweed bedstraw): 100
Bermudagrass plant response rating (bermudagrass; [9]): 100
Plant response rating, Bermudagrass (bermudagrass; [10]): 75
Plant response rating (0 to 100), Bermudagrass (bermudagrass; Preemergence): 100
Bermudagrass plant response rating (bermudagrass; [11]): 100
Goosegrass plant response rating (Goosegrass): 100
Plant response rating, Goosegrass (Goosegrass): 100
Plant response rating (0 to 100), Goosegrass (Goosegrass): 100
Morningglory plant response rating (morningglory [4]): 50
Plant response rating, Morningglory (morningglory [4]): 0
Nutsedge, Yellow plant response rating (yellow nutsedge): 80
Plant response rating, Nutsedge, Yellow (yellow nutsedge): 0
Pigweed plant response rating (pigweed): 100
Plant response rating, Pigweed (pigweed): 100
Soybean plant response rating (soybean): 20
Plant response rating, Soybean (soybean; [12]): 0
Sunflower plant response rating [5]: 0
Plant response rating, Sunflower [5]: 0
Plant response rating, Sedge, Umbrella (umbrella sedge; [12]): 0
Plant response rating, Sedge, Umbrella (umbrella sedge; [13]): 80
Plant response rating, Sedge, Umbrella (umbrella sedge; [14]): 80
Plant response rating, Sedge, Umbrella (umbrella sedge; [15]): 85
Plant response rating, Barnyardgrass (barnyardgrass; [12]): 0
Plant response rating, Barnyardgrass (barnyardgrass; [13]): 0
Plant response rating, Barnyardgrass (barnyardgrass; [14]): 30
Plant response rating, Barnyardgrass (barnyardgrass; [16]): 80

Cn1nc(C(F)(F)F)c(CS(=O)(=O)c2cccc[n+]2[O-])c1OCC(F)(F)F [Compound 29]
Crabgrass, Large plant response rating (crabgrass; [6]): 80
Crabgrass, Large plant response rating (crabgrass; [7]): 90
Crabgrass, Large plant response rating (crabgrass; [8]): 90
Plant response rating, Crabgrass, Large (crabgrass; Preemergence, 500 g ai/ha): 100
Foxtail, Giant plant response rating (giant foxtail; [6]): 80
Foxtail, Giant plant response rating (giant foxtail; [7]): 90
Foxtail, Giant plant response rating (giant foxtail; [8]): 100
Plant response rating, Foxtail, Giant (giant foxtail; Preemergence, 500 g ai/ha): 100
Morningglory plant response rating (morningglory [1]; [6]): 30
Morningglory plant response rating (morningglory [1]; [7]): 80
Morningglory plant response rating (morningglory [1]; [8]): 70
Plant response rating, Morningglory (morningglory [1]; Preemergence, 500 g ai/ha): 80
Wheat plant response rating (wheat [2]; [6]): 50
Wheat plant response rating (wheat [2]; [7]): 60
Wheat plant response rating (wheat [2]; [8]): 60
Plant response rating, Wheat (wheat [2]; Preemergence, 500 g ai/ha): 90
Corn plant response rating (corn; [6]): 30
Corn plant response rating (corn; [7]): 60
Corn plant response rating (corn; [8]): 0
Plant response rating, Corn (corn; Preemergence, 500 g ai/ha): 70
Ryegrass, Italian plant response rating (Italian ryegrass): 85
Plant response rating, Ryegrass, Italian (Italian ryegrass): 60
Wheat plant response rating (wheat [3]): 30
Plant response rating, Wheat (wheat [3]): 20
Galium plant response rating (catchweed bedstraw): 100
Plant response rating, Galium (catchweed bedstraw): 100
Plant response rating (0 to 100), Galium (catchweed bedstraw): 100
Bermudagrass plant response rating (bermudagrass; [9]): 100
Plant response rating, Bermudagrass (bermudagrass; [10]): 100
Plant response rating (0 to 100), Bermudagrass (bermudagrass; Preemergence): 100
Bermudagrass plant response rating (bermudagrass; [11]): 100
Goosegrass plant response rating (Goosegrass): 100
Plant response rating, Goosegrass (Goosegrass): 100
Plant response rating (0 to 100), Goosegrass (Goosegrass): 100
Morningglory plant response rating (morningglory [4]): 10
Plant response rating, Morningglory (morningglory [4]): 0
Nutsedge, Yellow plant response rating (yellow nutsedge): 100
Plant response rating, Nutsedge, Yellow (yellow nutsedge): 80
Pigweed plant response rating (pigweed): 100
Plant response rating, Pigweed (pigweed): 100
Soybean plant response rating (soybean): 70
Sunflower plant response rating [5]: 60
Plant response rating, Sunflower [5]: 0
Plant response rating, Sedge, Umbrella (umbrella sedge; [12]): 80
Plant response rating, Sedge, Umbrella (umbrella sedge; [13]): 90
Plant response rating, Sedge, Umbrella (umbrella sedge; [14]): 90
Plant response rating, Sedge, Umbrella (umbrella sedge; [15]): 95
Plant response rating, Barnyardgrass (barnyardgrass; [12]): 0
Plant response rating, Barnyardgrass (barnyardgrass; [13]): 0
Plant response rating, Barnyardgrass (barnyardgrass; [14]): 40
Plant response rating, Barnyardgrass (barnyardgrass; [16]): 80

— patent US20100298141A1, “SUBSTITUTED PYRIDINE N-OXIDE HERBICIDES” (E. I. DU PONT DE NEMOURS AND COMPANY, priority 2007, published 2010)
